From PMC2824046 (Journal of the American Chemical Society, 2010)

Target: protein phosphatase 2A (PP2A)
Experiment: PP2A inhibition assay
Format: biochemical

IC50: 720 nM
Compound: CCCCC/C=C/C=C\C=C/[C@H](O)[C@H](C)[C@H](C/C=C/[C@@H]1OC(=O)C=C[C@@H]1O)OP(=O)(O)O [compound 2, phostriecin]
